For one assay, the target named is Cathepsin L (Rattus norvegicus, UniProt P07154). Put plainly: Assay of inhibition of Cathepsin L (N-CBZ-Phe-Arg-AMC substrate). To be noted: r rat CathL, pH5.0, 10 min preincubation at room temperature; read-out: IC50, Cathepsin L. Format: biochemical. The protocol:
After 10 min of incubation at room temperature a 20 μl of 1 mM substrate (N-CBZ-Phe-Arg-AMC, dissolved in DMSO) was added to initiate reaction. Reading is followed up for 10 min at the Fluoroscan reader (excitation at 380 nm, emission at 460 nm).

A further assay concerns the target Cathepsin B (Rattus norvegicus, UniProt P00787). Put plainly: In vitro assay of inhibition of Cathepsin B (N-CBZ-Phe-Arg-AMC substrate). Format: biochemical. The note with it: r rat CathB, pH5.1, 10 min preincubation at room temperature; read-out: IC50, Cathepsin B. On the procedure:
After 10 min of incubation at room temperature a 20 μl of 5 mM substrate (N-CBZ-Phe-Arg-AMC, dissolved in DMSO) was added to initiate reaction. Reading is followed up for 10 min at the Fluoroscan reader (excitation at 380 nm, emission at 460 nm).

A word on the IC50: it is the midpoint of a concentration-inhibition curve.

Chain of Cathepsin B (P00787 80-339): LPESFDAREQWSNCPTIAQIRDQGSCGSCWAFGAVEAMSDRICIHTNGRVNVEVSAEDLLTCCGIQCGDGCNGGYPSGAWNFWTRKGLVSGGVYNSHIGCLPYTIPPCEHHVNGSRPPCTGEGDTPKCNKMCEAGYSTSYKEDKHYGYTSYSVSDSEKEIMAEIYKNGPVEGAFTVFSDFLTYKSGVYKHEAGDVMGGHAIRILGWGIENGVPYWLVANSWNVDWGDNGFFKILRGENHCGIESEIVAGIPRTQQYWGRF
Chain of Cathepsin L (P07154 114-334): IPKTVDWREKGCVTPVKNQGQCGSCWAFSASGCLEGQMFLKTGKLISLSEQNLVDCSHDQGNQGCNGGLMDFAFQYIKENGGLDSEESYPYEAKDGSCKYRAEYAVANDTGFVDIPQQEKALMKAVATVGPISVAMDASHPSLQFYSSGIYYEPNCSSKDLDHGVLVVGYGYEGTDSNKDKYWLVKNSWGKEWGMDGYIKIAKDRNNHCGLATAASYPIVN

With `O=C(N[C@@H](Cc1ccccc1)C(=O)N[C@@H]1C(=O)N[C@H]1Sc1ccccc1)OCc1ccccc1` [Example 20, (3R,4S)-3-(N-benzyloxycarbonyl-L-phenylalanyl)-amino-4-phenylthio-azetidin-2-one], the IC50 on Cathepsin L worked out at 0.000108 µM.
As to `CC(=O)O[C@@H]1NC(=O)[C@H]1NC(=O)[C@H](Cc1ccccc1)NC(=O)N1CCOCC1` [Example 12, (3S,4S)-3-{N-(morpholin-yl-carbonyl)-L-phenylalaninyl}-amino-4-acetoxy-azetidin-2-one], the results for the IC50 on Cathepsin B and at Cathepsin L were 7.4 µM and 1.58 µM, respectively.
For `O=C(N[C@@H](Cc1ccccc1)C(=O)N[C@@H]1C(=O)N(S(=O)(=O)O)[C@H]1Sc1ccccc1)OCc1ccccc1` [Example 31, (3R,4S)-3-(N-benzyloxycarbonyl-L-phenylalanyl)-amino-4-phenylthio-azetidin-2-one-1-sulfonic acid] the same measures were 8.43 µM and 0.067 µM.
Taken in the same sequence, the figures for `O=C(CCc1ccccc1)N[C@@H](Cc1ccccc1)C(=O)N[C@@H]1C(=O)N[C@H]1Oc1ccc(C(=O)O)cc1` [Example 27B, (3S,4S)-3-{N-(3-phenylpropionoyl)-L-phenylalanyl}-amino-4-(4-carboxyphenoxy)-azetidin-2-one] were 21.8 µM and 0.038 µM.
For `CC(=O)O[C@@H]1NC(=O)[C@H]1NC(=O)[C@H](Cc1ccccc1)NS(=O)(=O)c1ccc2ccccc2c1` [Example 19, (3S,4S)-3-{N-(naphthalen-2-yl-sulfonyl)-L-phenylalanyl}-amino-4-acetoxy-azetidin-2-one] the same measures were 7.22 µM and 0.416 µM.
Regarding `N[C@@H](Cc1ccccc1)C(=O)N[C@@H]1C(=O)N[C@H]1Oc1ccc(C(=O)O)cc1` [Example 30B, (3S,4S)-3-(L-phenylalanyl)-amino-4-(4-carboxyphenoxy)-azetidin-2-one], the IC50 at Cathepsin B was above 68 µM; on Cathepsin L it was 5.26 µM.
Turning to `O=C(CCc1ccccc1)N[C@@H](Cc1ccccc1)C(=O)N[C@@H]1C(=O)N[C@H]1Oc1ccccc1` [Example 26, (3S,4S)-3-{N-(3-phenylpropionoyl)-L-phenylalanyl}-amino-4-phenoxy-azetidin-2-one], the IC50 at Cathepsin B came out at 2.19 µM; on Cathepsin L, 0.0556 µM.
For `CC(=O)O[C@H]1[C@H](NC(=O)[C@H](Cc2ccccc2)NC(=O)OCc2ccccc2)C(=O)N1S(=O)(=O)O` [Example 32, (3S,4S)-3-(N-benzyloxycarbonyl-L-phenylalanyl)-amino-4-acetoxy-azetidin-2-one-1-sulfonic acid] the same measures were 0.368 µM and 0.026 µM.
For `CC(=O)O[C@@H]1NC(=O)[C@H]1NC(=O)[C@H](Cc1ccccc1)NC(=O)CCN1CCOCC1` [Example 13] the same measures were 39.2 µM and 2.31 µM.
For `O=C(CCc1ccccc1)N[C@@H](Cc1ccccc1)C(=O)N[C@@H]1C(=O)N[C@H]1Oc1ccc(C[C@H](NC(=O)OCc2ccccc2)C(=O)OC(c2ccccc2)c2ccccc2)cc1` [Example 29A, (3S,4S)-3-{N-(3-phenylpropionoyl)-L-phenylalanyl}-amino-4-{4-(L-2-N-benzyloxycarbonylamino-2-diphenylmethoxycarbonyl-ethyl)-phenoxy}-azetidin-2-one] the same measures were 0.59 µM and 0.16 µM.
With `CC(=O)O[C@@H]1NC(=O)[C@H]1NC(=O)[C@H](Cc1ccccc1)NC(=O)CCc1cccnc1` [Example 14, (3S,4S)-3-{N-(3-pyrid-3-yl-propionoyl)-L-phenylalanyl}-amino-4-acetoxy-azetidin-2-one], the figures for the 50% inhibitory concentration (IC50) on Cathepsin B and at Cathepsin L were 24.5 µM and 1.29 µM, respectively.
As to `CC(=O)O[C@@H]1NC(=O)[C@H]1NC(=O)[C@H](Cc1ccccc1)NC(=O)c1cc2ccccc2o1` [Example 16, (3S,4S)-3{N-(benzofuran-2-yl-carbonyl)-L-phenylalanyl}-amino-4-acetoxy-azetidin-2-one], the results for the half-inhibitory concentration (IC50) at Cathepsin B and at Cathepsin L were 5.68 µM and 0.035 µM, respectively.
Taken in the same sequence, the figures for `CC(=O)O[C@@H]1NC(=O)[C@H]1NC(=O)[C@H](Cc1ccccc1)NS(=O)(=O)/C=C/c1ccccc1` [Example 11] were 1.66 µM and 1.84 µM.
On to `CC(=O)O[C@@H]1NC(=O)[C@H]1NC(=O)[C@H](Cc1ccccc1)NC(=O)/C=C/c1cccs1` [Example 17, (3S,4S)-3-[N-{3-(thiophen-2-yl)-trans-prop-2-enoyl}-L-phenylalanyl]-amino-4-acetoxy-azetidin-2-one], for which the IC50 is 5.37 µM on Cathepsin B and 0.0315 µM on Cathepsin L.
For `CC(=O)Oc1ccc(OCC(=O)N[C@@H](Cc2ccccc2)C(=O)N[C@@H]2C(=O)N[C@H]2OC(C)=O)cc1` [Example 15, (3S,4S)-3-[N-{2-(4-acetoxyphenoxy)-ethanoyl}-L-phenylalanyl]-amino-4-acetoxy-azetidin-2-one] the same measures were 6.33 µM and 2.07 µM.
For `O=C(CCc1ccccc1)N[C@@H](Cc1ccccc1)C(=O)N[C@@H]1C(=O)N[C@H]1Oc1cccc(C(=O)O)c1` [Example 28, (3S,4S)-3-{N-(3-phenylpropionoyl)-L-phenylalanyl}-amino-4-(3-carboxyphenoxy)-azetidin-2-one] the same measures were 0.076 µM and 0.228 µM.
For `CC(=O)O[C@@H]1NC(=O)[C@H]1NC(=O)[C@H](Cc1ccccc1)NS(=O)(=O)c1ccc(C(C)(C)C)cc1` [Example 18] the same measures were 2.12 µM and 0.082 µM.
Consider `CC(=O)O[C@@H]1NC(=O)[C@H]1NC(=O)[C@H](Cc1ccccc1)NC(=O)CCc1ccccc1` [Example 10, (3S,4S)-3-{N-(3-phenylpropionoyl)-L-phenylalanyl}-amino-4-acetoxy-azetidin-2-one], for which the IC50 on Cathepsin B was 0.47 µM; on Cathepsin L it was 0.035 µM.
In the case of `O=C(N[C@@H](Cc1ccccc1)C(=O)N[C@@H]1C(=O)N[C@H]1Sc1ccncc1)OCc1ccccc1` [Example 34, (3S,4S)-3-(N-benzyloxycarbonyl-L-phenylalanyl)-amino-4-(pyrid-4-yl) thio-azetidin-2-one], the IC50 on Cathepsin B stood at 0.33 µM; at Cathepsin L, 0.0168 µM.
Taken in the same sequence, the figures for `O=C(N[C@@H](Cc1ccccc1)C(=O)N[C@@H]1C(=O)N[C@H]1S(=O)(=O)c1ccccc1)OCc1ccccc1` [Example 21, (3R,4S)-3-(N-benezyloxycarbonyl-phenylalanyl)-amino-4-phenylsulfonyl-azetidin-2-one] were 7.39 µM and 0.000126 µM.

The values are drawn from patent US5986108A, “4-substitued-3-[1 or 2 amino acid residue]-azetidin-2-one derivatives useful as cysteine proteinase inhibitor” (Synphar Laboratories, Inc., priority 1997, dated 1999).
